{
  "source": "patent US20260294906A1",
  "about": "“TREATING PSORIASIS USING A SMALL MOLECULE INHIBITOR OF TUMOR NECROSIS FACTOR ALPHA” (SANOFI, priority 2023, published 2026)",
  "test_system": "participants with mild to moderate psoriasis",
  "assay": "Liver function laboratory tests in the clinical study",
  "assay_type": "in vivo, human",
  "description": "Two study interventions were used, Compound 1 and placebo. The Compound 1 intervention comprised 4× tablets of Compound 1 50 mg twice daily, i.e. 200 mg BID, for 4 weeks. The placebo intervention was 4× tablets of placebo twice daily for 4 weeks. Tablets were administered orally.\nLaboratory tests (from at least 10 hours under fasting conditions for blood samples) included: • Hematology: red blood cell count, hematocrit, hemoglobin, white blood cell count with differential count (neutrophils, eosinophils, basophils, monocytes, and lymphocytes), platelets. • Biochemistry: • Plasma/serum electrolytes: sodium, potassium, chloride, calcium, • Liver function: AST, ALT, alkaline phosphatase, GGT, total and conjugated bilirubin, • Renal function: urea, creatinine, • Metabolism: glucose, albumin, total proteins, total cholesterol, triglycerides, • Potential muscle toxicity: CK, • International normalized ratio (INR), and activated partial thromboplastin time (aPTT), • C-reactive protein; the CRP levels were evaluated by an independent investigator who is not involved in the study to protect the blinding of the study. CRP values were provided by the independent investigator to the investigator in case of medical need. • Procalcitonin at screening, week 2 and EOS. • QuantiFERON-TB Gold (QFT) test.\nFor AESI in this study, the Sponsor was to be informed immediately (i.e., within 24 hours), as per SAE notification guidelines, even if a seriousness criterion was not met, using the corresponding screens in the eCRF. • ALT increased >3×ULN. • QT prolongation (QTcF≥500 milli seconds [ms]) and/or a delta QTc change from baseline>60 ms (12-lead ECG). In the event of prolongation of QTc interval (automatic measurement)≥500 ms, confirmed by a manual reading by the Investigator or a physician delegated by the Investigator using the Fridericia formula for correcting QT, the participant was placed under supervision in a specialized setting. Investigational medicinal product administration was stopped, and appropriate blood samples collected. Subsequent ECG monitoring of the participant was then performed on a regular and clinically responsible basis until the QTc interval returned to a safe value as determined by the Investigator in agreement with the Sponsor. • Photosensitivity (Grade 2 and above AE due to sun exposure). • Pregnancy. • Symptomatic overdose. • An overdose (accidental or intentional) with the IMP is an event suspected by the Investigator or spontaneously notified by the participant (not based on systematic pills count) and defined as at least twice the intended dose within the intended therapeutic interval, adjusted according to the tested drug.\nOnce the participant was included in the clinical trial, the following laboratory abnormalities were monitored, documented, and managed: • Neutropenia, characterized as neutrophils <1500/mm^3 or according to ethnic group (recorded as an AE only if at least 1 of the criteria listed above was met) • Thrombocytopenia, characterized as platelets <100,000/mm^3 confirmed with or without bleeding (recorded as an AE only if at least 1 of the criteria listed above was met) • Increase of ALT. Patients were monitored where 3 ULN<ALT≤5 ULN and total bilirubin was ≤2 ULN. […]",
  "note": "Entries after “also recorded” stand apart in the source; their conditions may differ.",
  "data": [
    {"compound": "CN1C(=O)c2cccc(OC(F)F)c2[C@H]2C[C@@H]1c1nc3ccc(-c4cnc(C5(N)CCC5)nc4)cc3n12", "note": "[Compound 1, (7R,14R)-11-[2-(1-aminocyclobutyl)pyrimidin-5-yl]-1-(difluoromethoxy)-6-methyl-6,7-dihydro-7,14-methanobenzimidazo[1,2-b][2,5]benzodiazocin-5(14H)-one]", "values": [
      {"measurement": "potentially clinically significant abnormality (PCSA) for ALT increase", "setting": "200 mg BID", "result": "no PCSA for ALT increase"},
      {"measurement": "total bilirubin, first participant", "setting": "200 mg BID, Day 8, baseline 1.5 ULN", "result": 1.67, "unit": "ULN"},
      {"measurement": "total bilirubin, second participant", "setting": "200 mg BID, day not given, baseline 1.3 ULN", "result": 1.56, "unit": "ULN"},
      {"measurement": "Number of participants with total bilirubin increased >1.5 ULN", "setting": "200 mg BID, one single occasion", "result": "two"},
      {"measurement": "liver function tests / impact on liver parameters (in words)", "setting": "4-week clinical trial", "result": "no signal for risks on liver function tests; also recorded: neither was any significant impact on cardiac parameters (e.g., QTcF interval) or liver parameters (e.g., AST, ALT, or bilirubin levels) observed"}
    ]}
  ]
}
